Where two headings read alike, the source gives them in different places.
Key:
Type in all cases: cell-based
[1] = test system: A549 (lung adenocarcinoma); test: Antiproliferative activity (CCK-8 cell viability), A549; details: Homo sapiens, 72 h; for inhibition at 3.3 µM: Compound concentration: 3.3 μM; for inhibition at 10 µM: Compound concentration: 10 μM; for inhibition at 30 µM: Compound concentration: 30 μM
Procedure, shortened: (§1)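 Cells grown in DMEM (HepG2, SW480), MEM (HeLa) or F-12K (A549), each with 10% FBS, then exposed to compound at 3.3, 10 or 30 μM for 72 h at 37 °C. CCK-8 absorbance at 450 nm; viability expressed as percent of DMSO-treated cells, graded as growth inhibition bands.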

[2] = test system: MDA-MB-231 (breast cancer); test: Antiproliferative activity (CCK-8 cell viability), MDA-MB-231; details: Homo sapiens, 72 h; for inhibition at 3.3 µM: Compound concentration: 3.3 μM; for inhibition at 10 µM: Compound concentration: 10 μM; for inhibition at 30 µM: Compound concentration: 30 μM
Procedure, shortened: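 MDA-MB-231 breast cancer cells, grown in DMEM with 10% FBS, were plated in 96-well plates at 2,000-5,000 cells/well. Once attached, they were exposed to compound and incubated at 37° C. for 72 h. Viability was then measured with CCK-8 (10 μL per well, 4 h at 37° C.) by absorbance at 450 nm, relative to DMSO vehicle wells.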

HepG2 (liver cancer) = test: Antiproliferative activity (CCK-8 cell viability), HepG2; details: Homo sapiens, 72 h; for inhibition at 3.3 µM: Compound concentration: 3.3 μM; for inhibition at 10 µM: Compound concentration: 10 μM; for inhibition at 30 µM: Compound concentration: 30 μM
Procedure, shortened: as §1

[3] = test system: B16F10 (malignant melanoma); test: Antiproliferative activity (CCK-8 cell viability), B16F10; details: Mus musculus, 72 h; for inhibition at 3.3 µM: B16-F10, Compound concentration: 3.3 μM; for inhibition at 10 µM: B16-F10, Compound concentration: 10 μM; for inhibition at 30 µM: B16-F10, Compound concentration: 30 μM
Procedure, shortened: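 B16F10 melanoma cells grown in DMEM with 10% FBS were plated in 96-well plates at 2,000-5,000 cells/well. After attachment they were exposed to compound in medium for 72 h at 37° C. CCK-8 solution (10 μL) was then added, and after 4 h at 37° C absorbance was read at 450 nm.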

HeLa (cervical cancer) = test: Antiproliferative activity (CCK-8 cell viability), HeLa; details: Homo sapiens, 72 h, read-out: Antiproliferative activity in cancerous cells, HELA (inhibition of cell growth); for inhibition at 3.3 µM: Compound concentration: 3.3 μM; for inhibition at 10 µM: Compound concentration: 10 μM; for inhibition at 30 µM: Compound concentration: 30 μM
Procedure, shortened: as §1

[4] = test system: A431 (epidermoid carcinoma); test: Antiproliferative activity (CCK-8 cell viability), A431; details: Homo sapiens, 72 h, read-out: Antiproliferative activity in cancerous cells, A431 (inhibition of cell growth); for inhibition at 3.3 µM: A-431, Compound concentration: 3.3 μM; for inhibition at 10 µM: A-431, Compound concentration: 10 μM; for inhibition at 30 µM: A-431, Compound concentration: 30 μM
Procedure, shortened: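 A431 epidermoid carcinoma cells grown in DMEM with 10% FBS were plated at 2,000-5,000 cells/well in 96-well plates. After attachment they were exposed to compound at 3.3 μM, 10 μM, or 30 μM for 72 h at 37° C. Viability was then assessed by CCK-8 against DMSO vehicle-treated wells.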

SW480 (colon cancer) = test: Antiproliferative activity (CCK-8 cell viability), SW480; details: Homo sapiens, 72 h; for inhibition at 3.3 µM: Compound concentration: 3.3 μM; for inhibition at 10 µM: Compound concentration: 10 μM; for inhibition at 30 µM: Compound concentration: 30 μM
Procedure, shortened: as §1

[5] = read-out: Antiproliferative activity in cancerous cells, A549 (inhibition of cell growth)
[6] = read-out: Antiproliferative activity in cancerous cells, MDA-MB-231 (inhibition of cell growth)
[7] = read-out: Antiproliferative activity in cancerous cells, HepG2 (inhibition of cell growth)
[8] = read-out: Antiproliferative activity in cancerous cells, B16F10 (inhibition of cell growth)
[9] = read-out: Antiproliferative activity in cancerous cells, SW480 (inhibition of cell growth)
[10] = read-out: Antiproliferative activity in cancerous cells, A549
[11] = read-out: Antiproliferative activity in cancerous cells, MDA-MB-231

| SMILES | inhibition at 3.3 µM [1, 5] [%] | inhibition at 10 µM [1, 5] [%] | inhibition at 30 µM [1, 5] [%] | inhibition at 3.3 µM [2, 6] [%] | inhibition at 10 µM [2, 6] [%] | inhibition at 30 µM [2, 6] [%] | inhibition at 3.3 µM (HepG2 (liver cancer); [7]) [%] | inhibition at 10 µM (HepG2 (liver cancer); [7]) [%] | inhibition at 30 µM (HepG2 (liver cancer); [7]) [%] | inhibition at 3.3 µM [3, 8] [%] | inhibition at 10 µM [3, 8] [%] | inhibition at 30 µM [3, 8] [%] | inhibition at 3.3 µM (HeLa (cervical cancer)) [%] | inhibition at 10 µM (HeLa (cervical cancer)) [%] | inhibition at 30 µM (HeLa (cervical cancer)) [%] | inhibition at 3.3 µM [4] [%] | inhibition at 10 µM [4] [%] | inhibition at 30 µM [4] [%] | inhibition at 3.3 µM (SW480 (colon cancer); [9]) [%] | inhibition at 10 µM (SW480 (colon cancer); [9]) [%] | other results |
| --- | --- | --- | --- | --- | --- | --- | --- | --- | --- | --- | --- | --- | --- | --- | --- | --- | --- | --- | --- | --- | --- |
| CC1=C(CC(=O)O)c2cc(F)ccc2/C1=C/c1cccc(Oc2cccc(Cl)c2)c1 [E26, (E)-2-(1-(3-(3-Chlorophenoxy)benzylidene)-5-fluoro-2-methyl-1H-inden-3-yl)acetic acid] | < 30 | < 30 | ≥ 50 | < 30 | < 30 | ≥ 50 | < 30 | ≥ 50 | ≥ 50 | < 30 | < 30 | ≥ 50 | < 30 | ≥ 50 | ≥ 50 | < 30 | ≥ 50 | ≥ 50 | < 30 | < 30 | inhibition at 30 µM (SW480 (colon cancer); [9]): ≥ 50% |
| CC1=C(CC(=O)O)c2cc(F)ccc2/C1=C/c1ccc(Oc2ccc(F)cc2F)cc1 [E17, (E)-2-(1-(4-(2,4-Difluorophenoxy)benzylidene)-5-fluoro-2-methyl-1H-inden-3-yl)acetic acid] | < 30 | ≥ 50 | ≥ 50 | 30 to 50 | ≥ 50 | ≥ 50 | ≥ 50 | ≥ 50 | ≥ 50 | ≥ 50 | ≥ 50 | ≥ 50 | 30 to 50 | ≥ 50 | ≥ 50 | < 30 | ≥ 50 | ≥ 50 | < 30 | ≥ 50 | inhibition at 30 µM (SW480 (colon cancer); [9]): ≥ 50% |
| CCc1ccc2c(c1)/C(=C\c1ccc(COc3ccccc3)cc1)C(C)=C2CC(=O)O [B48, (Z)-2-(6-Ethyl-2-methyl-1-(4-(phenoxymethyl)benzylidene)-1H-inden-3-yl)acetic acid] | < 30 | 30 to 50 |  | < 30 | < 30 |  | < 30 | < 30 |  | 30 to 50 | 30 to 50 |  | 30 to 50 | ≥ 50 |  | ≥ 50 | ≥ 50 |  | < 30 | < 30 | inhibition at 30 µM [1, 10]: 30 to 50%; inhibition at 30 µM [2, 11]: < 30%; inhibition at 30 µM (HepG2 (liver cancer); read-out: Antiproliferative activity in cancerous cells, HepG2): < 30%; inhibition at 30 µM ([3]; read-out: Antiproliferative activity in cancerous cells, B16F10): 30 to 50%; inhibition at 30 µM (SW480 (colon cancer); read-out: Antiproliferative activity in cancerous cells, SW480): < 30% |
| CC1=C(CC(=O)O)c2cc(F)ccc2/C1=C\c1cccc(CSc2ccc(F)cc2)c1 [B49, (Z)-2-(5-Fluoro-1-(3-(((4-fluorophenyl)thio)methyl)benzylidene)-2-methyl-1H-inden-3-yl)acetic acid] | < 30 | 30 to 50 |  | ≥ 50 | ≥ 50 |  | < 30 | ≥ 50 |  | ≥ 50 | ≥ 50 |  | < 30 | ≥ 50 |  | < 30 | 30 to 50 |  | < 30 | ≥ 50 |  |
| CC1=C(CC(=O)O)c2cc(F)ccc2/C1=C\c1ccc(COCc2ccc(C(F)(F)F)cc2)cc1 [B111, (Z)-2-(5-Fluoro-2-methyl-1-(4-(((4-(trifluoromethyl)benzyl)oxy)methyl)-benzylidene)-1H-inden-3-yl)acetic acid] | 30 to 50 | ≥ 50 |  | 30 to 50 | ≥ 50 |  | < 30 | ≥ 50 |  | 30 to 50 | ≥ 50 |  | ≥ 50 | ≥ 50 |  | < 30 | ≥ 50 |  | < 30 | ≥ 50 |  |
| CC1=C(CC(=O)O)c2cc(F)ccc2/C1=C\c1ccc(Oc2ccc(F)c(Cl)c2)cc1 [C54, (Z)-2-(1-(4-(3-Chloro-4-fluorophenoxy)benzylidene)-5-fluoro-2-methyl-1H-inden-3-yl)acetic acid] | < 30 | < 30 |  | < 30 | ≥ 50 |  | < 30 | 30 to 50 |  | ≥ 50 | ≥ 50 |  | < 30 | ≥ 50 |  | ≥ 50 | ≥ 50 |  | < 30 | ≥ 50 | inhibition at 30 µM [1, 10]: < 30% |
| CC1=C(CC(=O)O)c2cc(F)ccc2/C1=C\c1ccc(CSc2ccc(F)cc2)cc1 [B45, (Z)-2-(5-Fluoro-1-(4-(((4-fluorophenyl)thio)methyl)benzylidene)-2-methyl-1H-inden-3-yl)acetic acid] | < 30 | < 30 |  | < 30 | < 30 |  | < 30 | ≥ 50 |  | < 30 | ≥ 50 |  | < 30 | ≥ 50 |  | < 30 | 30 to 50 |  | < 30 | ≥ 50 | inhibition at 30 µM [2, 11]: < 30% |
| CC1=C(CC(=O)O)c2cc(F)ccc2/C1=C\c1ccc(OC2CCC(F)(F)CC2)cc1 [C205, (Z)-2-(1-(4-((4,4-Difluorocyclohexyl)oxy)benzylidene)-5-fluoro-2-methyl-1H-inden-3-yl)acetic acid] | < 30 | ≥ 50 | ≥ 50 | ≥ 50 | ≥ 50 | ≥ 50 | < 30 | 30 to 50 | ≥ 50 | ≥ 50 | ≥ 50 | ≥ 50 | < 30 | ≥ 50 | ≥ 50 | < 30 | 30 to 50 | ≥ 50 | 30 to 50 | 30 to 50 | inhibition at 30 µM (SW480 (colon cancer); [9]): ≥ 50% |

Source: patent US20260184663A1, “INDENE COMPOUNDS, PHARMACEUTICAL COMPOSITIONS THEREOF, AND THEIR THERAPEUTIC APPLICATIONS” (NucMito Pharmaceuticals co. Ltd., priority 2022, published 2026)
